Literature values, collected in patent US20160317408A1, “KERATIN FIBRE DYEING METHOD” (ALFA PARF GROUP S.p.A., priority 2015, published 2016).

Columns and labels:
[1] = SCCS Opinion 1509/13, Memorandum on hair dye chemical sensitisation
[2] = value assigned from SCCS memorandum class; composition containing the dye

Compound | sensitising power classification [1] | individual sensitisation index value of the dye [2]
Nc1ccc(OCCO)c(N)c1 [2,4-diaminophenoxyethanol] | Moderate | 2
Nc1ncccc1O [2-Amino-3-hydroxypyridine] | not classifiable | 
Cc1c(O)cccc1O [2-methylresorcinol] | Moderate | 2
Oc1ccc(Cl)c(O)c1 [4-chlororesorcinol] | Moderate | 2
Nc1ccc(N(CCO)CCO)cc1 [N,N-bis(2-hydroxyethyl)-p-phenylenediamine] | Strong | 1
Nc1ccc(NCCO)cc1 [hydroxyethyl-p-phenylenediamine] | Strong | 
Nc1ccc(N)cc1 [p-phenylenediamine] | Extreme | 0
Oc1cccc(O)c1 [resorcinol] | Strong | 
